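Five compound concentrations were applied to cells in 96-well plates for 48 hours; endpoints were derived by simple linear interpolation of the resulting dose-response curve. TGI: total growth inhibition.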
How the values were obtained:
Test in all cases: DTP human tumour cell line panel, 48 h
[1] = system: 786-0 renal
[2] = system: A498 renal
[3] = system: A549 NSCLC
[4] = system: ACHN renal
[5] = system: BT-549 breast
[6] = system: CAKI-1 renal
[7] = system: CCRF-CEM leukemia
[8] = system: COLO 205 colon
[9] = system: DU-145 prostate
[10] = system: EKVX NSCLC
[11] = system: HCC-2998 colon
[12] = system: HCT-116 colon
[13] = system: HCT-15 colon
[14] = system: HOP-62 NSCLC
[15] = system: HOP-92 NSCLC
[16] = system: HT29 colon
[17] = system: IGROV1 ovarian
[18] = system: K-562 leukemia
[19] = system: KM12 colon
[20] = system: LOX IMVI melanoma
[21] = system: M14 melanoma
[22] = system: MALME-3M melanoma
[23] = system: MCF7 breast
[24] = system: MDA-MB-231 breast
[25] = system: MDA-MB-435
[26] = system: MDA-N
[27] = system: MOLT-4 leukemia
[28] = system: NCI-H226 lung
[29] = system: NCI-H23 lung
[30] = system: NCI-H460 lung
[31] = system: NCI-H522 lung
[32] = system: NCI/ADR-RES ovarian
[33] = system: OVCAR-3 ovarian
[34] = system: OVCAR-4 ovarian
[35] = system: OVCAR-5 ovarian
[36] = system: OVCAR-8 ovarian
[37] = system: PC-3 prostate
[38] = system: RPMI-8226 leukemia
[39] = system: RXF 393 renal
[40] = system: SF-268 CNS
[41] = system: SF-295 CNS
[42] = system: SF-539 CNS
[43] = system: SK-MEL-2 melanoma
[44] = system: SK-MEL-28 melanoma
[45] = system: SK-MEL-5 melanoma
[46] = system: SK-OV-3 ovarian
[47] = system: SN12C renal
[48] = system: SNB-19 CNS
[49] = system: SR leukemia
[50] = system: SW-620 colon
[51] = system: T-47D breast
[52] = system: TK-10 renal
[53] = system: U251 CNS
[54] = system: UACC-257 melanoma
[55] = system: UACC-62 melanoma
[56] = system: UO-31 renal
[57] = system: HL-60(TB) leukemia
[58] = system: HS 578T breast
[59] = system: SNB-75 CNS

With COc1cc2c(cc1OCCCN1C(=O)c3cccc4cccc(c34)C1=O)N=C[C@@H]1CCCN1C2=O the TGI [1] was 54.3 µM, the TGI [2] was > 100 µM and the TGI [3] was > 100 µM. The TGI [4] was > 63.4 µM, the TGI [5] was > 100 µM and the TGI [6] was > 58.1 µM. The TGI [7] was 22.2 µM, the TGI [8] was 40.6 µM and the TGI [9] was > 100 µM. For the same compound, the TGI [10] was > 100 µM, the TGI [11] was > 100 µM and the TGI [12] was > 100 µM. For the same compound, the TGI [13] was > 77.9 µM, the TGI [14] was > 100 µM and the TGI [15] was > 58.2 µM. For the same compound, the TGI [16] was > 100 µM, the TGI [17] was 31.5 µM and the TGI [18] was > 80.5 µM. The TGI [19] was > 49.8 µM, the TGI [20] was > 100 µM and the TGI [21] was > 100 µM. For the same compound, the TGI [22] was 35.1 µM, the TGI [23] was > 56.7 µM and the TGI [24] was > 100 µM. For the same compound, the TGI [25] was > 100 µM, the TGI [26] was > 100 µM and the TGI [27] was > 65.4 µM. The TGI [28] was > 100 µM, the TGI [29] was > 100 µM and the TGI [30] was > 100 µM. For the same compound, the TGI [31] was 27.9 µM, the TGI [32] was > 100 µM and the TGI [33] was > 85.1 µM. For the same compound, the TGI [34] was > 81.4 µM, the TGI [35] was > 100 µM and the TGI [36] was > 100 µM. The TGI [37] was > 100 µM, the TGI [38] was > 50.2 µM and the TGI [39] was 34.2 µM. The TGI [40] was > 100 µM, the TGI [41] was > 100 µM and the TGI [42] was > 100 µM. The TGI [43] was > 100 µM, the TGI [44] was > 100 µM and the TGI [45] was > 63.6 µM. The TGI [46] was > 100 µM, the TGI [47] was > 100 µM and the TGI [48] was > 100 µM. The TGI [49] was 25.5 µM, the TGI [50] was > 63 µM and the TGI [51] was > 100 µM. The TGI [52] was > 100 µM, the TGI [53] was > 100 µM and the TGI [54] was > 100 µM. For the same compound, the TGI [55] was > 100 µM and the TGI [56] was > 71 µM.

With CC(C)(C)c1ccc2c(c1)C#Cc1cc3c(cc1OCCCO2)C#Cc1cc(C(C)(C)C)ccc1OCCCO3 the TGI [1] was > 100 µM, the TGI [2] was > 100 µM and the TGI [3] was > 100 µM. The TGI [4] was > 100 µM, the TGI [5] was 3.39 µM and the TGI [6] was > 100 µM. The TGI [7] was > 100 µM, the TGI [8] was > 100 µM and the TGI [9] was > 100 µM. The TGI [10] was > 100 µM, the TGI [11] was > 100 µM and the TGI [12] was > 100 µM. For the same compound, the TGI [13] was 5.92 µM, the TGI [57] was > 100 µM and the TGI [14] was > 100 µM. For the same compound, the TGI [15] was > 100 µM, the TGI [58] was > 100 µM and the TGI [16] was > 100 µM. The TGI [17] was > 100 µM, the TGI [18] was > 100 µM and the TGI [19] was > 100 µM. For the same compound, the TGI [20] was > 100 µM, the TGI [21] was > 100 µM and the TGI [22] was > 100 µM. For the same compound, the TGI [23] was > 100 µM, the TGI [24] was > 100 µM and the TGI [25] was > 100 µM. The TGI [26] was > 100 µM, the TGI [27] was > 100 µM and the TGI [29] was 4.54 µM. The TGI [30] was > 100 µM, the TGI [31] was > 100 µM and the TGI [32] was 29.5 µM. For the same compound, the TGI [33] was > 100 µM, the TGI [34] was > 100 µM and the TGI [35] was > 100 µM. The TGI [36] was > 100 µM, the TGI [37] was > 100 µM and the TGI [38] was > 100 µM. For the same compound, the TGI [39] was > 100 µM, the TGI [40] was > 100 µM and the TGI [41] was > 100 µM. The TGI [42] was > 100 µM, the TGI [43] was > 100 µM and the TGI [44] was > 100 µM. For the same compound, the TGI [45] was > 100 µM, the TGI [46] was > 100 µM and the TGI [47] was > 100 µM. For the same compound, the TGI [48] was > 100 µM, the TGI [50] was > 100 µM and the TGI [51] was > 100 µM. The TGI [52] was > 100 µM, the TGI [53] was > 100 µM and the TGI [54] was > 100 µM. The TGI [55] was > 100 µM.

With O=C1N(Cc2ccccc2)C2CSCC2N1Cc1ccccc1 (stereo unspecified) the TGI [3] was > 100 µM, the TGI [4] was > 100 µM and the TGI [5] was 53.5 µM. The TGI [6] was > 100 µM, the TGI [7] was > 100 µM and the TGI [8] was 32.8 µM. The TGI [9] was > 100 µM, the TGI [10] was 79.3 µM and the TGI [11] was 62.9 µM. For the same compound, the TGI [12] was > 100 µM, the TGI [14] was 58.3 µM and the TGI [15] was 77.7 µM. For the same compound, the TGI [58] was 66.5 µM, the TGI [16] was 38.1 µM and the TGI [17] was > 100 µM. The TGI [18] was > 100 µM, the TGI [19] was > 100 µM and the TGI [20] was 93.1 µM. The TGI [21] was 33.7 µM, the TGI [22] was 46.3 µM and the TGI [23] was > 100 µM. The TGI [24] was 68.3 µM, the TGI [25] was 51.5 µM and the TGI [26] was 80 µM. It also gave a TGI [27] of 97 µM, a TGI [28] of 64.6 µM and a TGI [29] of 85 µM. It also gave a TGI [30] of 55.8 µM, a TGI [31] of 24.2 µM and a TGI [32] of 69.4 µM. The TGI [33] was 43.9 µM, the TGI [34] was > 100 µM and the TGI [35] was > 100 µM. The TGI [36] was > 100 µM, the TGI [37] was > 100 µM and the TGI [38] was 59 µM. For the same compound, the TGI [39] was 69.4 µM, the TGI [40] was > 100 µM and the TGI [41] was > 100 µM. The TGI [42] was 76 µM, the TGI [43] was 46.4 µM and the TGI [44] was > 100 µM. The TGI [45] was 30.3 µM, the TGI [46] was > 100 µM and the TGI [47] was > 100 µM. For the same compound, the TGI [48] was > 100 µM, the TGI [59] was > 100 µM and the TGI [49] was 93.6 µM. The TGI [50] was > 100 µM, the TGI [51] was 91.8 µM and the TGI [52] was 85.9 µM. For the same compound, the TGI [53] was > 100 µM, the TGI [54] was 69.3 µM and the TGI [55] was 79.2 µM. The TGI [56] was 93.5 µM.

Source: PubChem BioAssay (NCI)
